System: young oophorectomized rats
Assay: Estrogenic activity (uterine wet weight) in young oophorectomized rats
Assay type: in vivo, Sprague-Dawley rats
Text: Test Example 1 Estrogenic activity of 7-isopropoxy-3-(4-hydroxyphenyl)-4H-1-benzopyran-4-one (hereinafter referred to as compound A) in young oophorectomized rats Sprague-Dawley rats, 33 days old and 11 days after oophorectomy for elimination of endogenous estrogenic activity, were used in groups of 6 to 7 animals. Compound A was suspended in a 1% aqueous solution of hydroxypropyl-cellulose and administered orally for 3 days, while as a representative example of the conventional estrogen drug, estrone was dissolved in sesame oil and administered subcutaneously for 3 days. On the fourth day, each animal was autopsied and its uterine wet weight was recorded.

## CC(C)Oc1ccc2c(=O)c(-c3ccc(O)cc3)coc2c1 [Compound A, 7-isopropoxy-3-(4-hydroxyphenyl)-4H-1-benzopyran-4-one]
Daily dose 6.25 mg/kg, orally for 3 days, autopsy on fourth day, n=7
  Uterine wet weight (mg ± S.D.): 32.6 ± 1.2 mg
Daily dose 25 mg/kg, orally for 3 days, autopsy on fourth day, n=7
  Uterine wet weight (mg ± S.D.): 39.2 ± 2.3 mg
Daily dose 100 mg/kg, orally for 3 days, autopsy on fourth day, n=7, significant vs control (P<0.01)
  Uterine wet weight (mg ± S.D.): 56.3 ± 3.7 mg
Daily dose 400 mg/kg, orally for 3 days, autopsy on fourth day, n=6, significant vs control (P<0.01)
  Uterine wet weight (mg ± S.D.): 83.0 ± 6.9 mg
Orally for 3 days, daily dose levels of 100 mg/kg and 400 mg/kg
  uterine weight increasing effect, dose-response curve: uterine weight increasing effect with a dose-response curve of moderate gradient

## C[C@]12CC[C@@H]3c4ccc(O)cc4CC[C@H]3[C@@H]1CCC2=O [Estrone, estrone, reference compound]
Daily dose 0.0025 mg/kg, subcutaneously for 3 days in sesame oil, n=7, significant vs control (P<0.01)
  Uterine wet weight (mg ± S.D.): 121.1 ± 7.0 mg
Daily dose 0.005 mg/kg, subcutaneously for 3 days in sesame oil, n=7, significant vs control (P<0.01)
  Uterine wet weight (mg ± S.D.): 200.5 ± 14.3 mg
Daily dose 0.01 mg/kg, subcutaneously for 3 days in sesame oil, n=7, significant vs control (P<0.01)
  Uterine wet weight (mg ± S.D.): 247.2 ± 14.6 mg

— patent publication EP0136569A2, “Isoflavone derivatives, their production and use” (Takeda Chemical Industries, Ltd., priority 1983, dated 1985)
